Measured values published in a melting point compilation (Tetko et al.; mined from patent text by program, amines drawn as free bases though some values may be those of a salt).

Row | SMILES | melting point
1 | O=C(CC(=O)c1cccc(C(F)(F)F)c1NC(=O)C(F)F)Nc1nccs1 | 206 °C
2 | CCOC(=O)Nc1cc2nc(O)c(O)nc2cc1Cl | > 300 °C
3 | CC1(C)Oc2ccc(C(=O)O)cc2S1 | 124 to 125 °C
4 | O=c1[nH]c2cc(Cl)ccc2n1C1CCN(CCCn2c(=S)[nH]c3ccccc32)CC1 | 267 °C
5 | CCOC(=O)N1C[C@@H]2CC[C@H]1C(=O)C2 | 68.5 to 69.5 °C
6 | Cc1noc(-c2cccc(CN3CCN(c4ccc(N)cc4)CC3)c2)n1 | 106 to 108 °C
7 | O=C(CCCN1CCCCC1)c1ccc2oc3ccc(C(=O)CCCN4CCCCC4)cc3c(=O)c2c1 | 93 to 95 °C
8 | CC12CCC(C(=O)CC1=O)C2(C)C (stereo not given) | 220 °C
9 | N#Cc1nc(SCc2cnn(-c3c(Cl)cc(C(F)(F)F)cc3Cl)n2)n(Cc2ccccc2)c1C#N | 132 °C
10 | CCCCOc1nc(N)c2nc(OC)n(CCSc3cccc(CC(=O)O)c3)c2n1 | 205 to 207 °C
11 | N#CCCN(N)c1nc2ccccc2o1 | 169 to 170 °C
12 | CC(C)(C)OC(=O)N1CC(CCl)c2c1cc([N+](=O)[O-])c1ccccc21 (stereo not given) | 168 to 169 °C
13 | Cc1cc(CN2CCC(N(C)S(=O)(=O)c3ccc(Nc4nccc(Nc5ccc(F)c(C)c5)n4)cc3)CC2)[nH]n1 | 130 °C
14 | O=C1N(Cc2ccccc2C(F)(F)F)c2ccccc2C12COc1cc3c(cc12)OCCO3 (stereo not given) | 137 to 138 °C
15 | Cc1onc(-c2ccccc2)c1-c1[nH]c2ccccc2c1CCC(=O)N(C)C | 174 to 177 °C
16 | CN1CCN(Cc2cc(C(=O)c3ccc(Cl)cc3)cc(C(C)(C)C)c2O)CC1 | 131 to 132 °C
17 | CCCc1c(OCCCOc2ccc(C(=O)CCC(=O)O)c(Cl)c2Cl)ccc(C(C)=O)c1O | 119 to 123 °C
18 | O=C(NCCC12CC3CC(CC(C3)C1)C2)c1cc(-c2cccnc2C(=O)O)ccc1Cl | 108 to 111 °C
19 | CC(=O)OC1CSC(Oc2cccnc2-c2ccoc2)C(OC(C)=O)C1OC(C)=O (stereo not given) | 185 °C
20 | CN(C)CCc1cn(S(=O)(=O)c2ccccc2)c2ccc(O)cc12 | 185 to 188 °C
21 | CCOC(=O)C1CN(S(C)(=O)=O)CCN1CC=CC(=O)Nc1cc2c(Nc3ccc(F)c(Cl)c3)ncnc2cc1OCC1CC1 (stereo not given) | 170 to 173 °C

Row | SMILES | melting point
22 | Cc1cc(C)nc(NC(=O)Cc2cccn2C)c1 | 85 °C
23 | Nc1cc(OCC2CC2)c(C(=O)NC2CN3CCC2CC3)cc1Cl (stereo not given) | 183 to 185 °C
24 | COC1=C(OC)C(=O)C2=C(CCC(CC(=O)O)CC2)C1=O | 130 to 132 °C
25 | Cc1cc(CN2CCN(C)CC2)cc2c1Cc1c(-c3ccsc3)n[nH]c1-2 | 235 to 236 °C
26 | O=Cc1cc2n(n1)-c1ccc(Cl)cc1C(c1ccccc1)NC2=O (stereo not given) | 276 to 278 °C
27 | C=CCc1cc2c(cc1O)CCC(=O)N2CC=Cc1ccccc1 | 199 to 203 °C
28 | CCOC(=O)c1cccc(C#CC2(O)CN3CCC2CC3)c1 (stereo not given) | 155 to 156 °C
29 | O=c1c2ccc(F)cc2nc(C(S)c2ncnc3[nH]cnc23)n1-c1ccccc1Cl (stereo not given) | 151 to 154 °C
30 | CC12CCC(C(=O)N(CCCCN3CCN(c4ncccn4)CC3)C1=O)C2(C)C (stereo not given) | 92 to 94 °C
31 | C1=C(c2nc3ccccc3o2)CCN(Cc2ccccc2)C1 | 129 to 130 °C
32 | COC(=O)c1nn(C2CCCCO2)cc1NC(=O)c1ccccc1 (stereo not given) | 124 to 125 °C
33 | Nc1cc2c(cc1[N+](=O)[O-])[nH]c(=O)c(=O)n2C1CCCCC1 | > 260 °C
34 | OC(CN1CC=C(c2ccc(Cl)cc2)CC1)c1ccc(Cc2ccc(Cl)cc2)cc1 (stereo not given) | 149 to 152 °C
35 | COc1ccncc1-c1cncc(OC2SCC(O)C(O)C2O)c1 (stereo not given) | 154 °C
36 | CCCCc1cc2c(=O)n3cc(C(=O)OC)ccc3nc2s1 | 137 to 138 °C
37 | O=C1N=NC(=O)c2ccccc21 | 257 to 259 °C
38 | CCNC(=O)c1ccnc([N+](=O)[O-])c1 | 65 to 67 °C
39 | O=C(O)Cc1cc2c(s1)-c1ccccc1OC2C1=CCCC=C1 (stereo not given) | 105 to 110 °C
40 | COC(=O)c1nn(C2CCCCO2)cc1NC(=O)c1ccccn1 (stereo not given) | 131 to 132 °C
41 | Cc1nc(COc2cc(N)c(Cl)cc2C(=O)O)cs1 | 188 to 189 °C
42 | Cc1oc(-c2ccco2)nc1COc1ccc(CCl)cn1 | 95 to 96 °C

Row | SMILES | melting point
43 | COc1cc(CCCCCC2OC(=O)NC2=O)ccc1OCc1nc(-c2ccccc2)oc1C (stereo not given) | 114 to 115 °C
44 | Cc1ccc(S(=O)(=O)N2CCC(S(=O)(=O)c3ccc(Cl)cc3)CC2)cc1 | 263 to 264 °C
45 | C=CCNc1nnc(-c2ccc(F)c(F)c2Nc2ccc(I)cc2F)o1 | 175 to 178 °C
46 | c1ccc(N=C(N=C(Nc2ccccc2)c2ccccc2)N2CCCC2)cc1 | 246 to 247 °C
47 | COC(=O)c1ccccc1S(=O)(=O)NC(=O)N1NC(=O)N(O)C1OC (stereo not given) | 180 °C
48 | COc1cc(-c2cc(C3CCOC3)no2)cc2oc(=O)c(C)c(C)c12 (stereo not given) | 122 °C
49 | Cc1ccc(-c2cn(C)c(-c3nc(-c4ccc(C)s4)cn3C)n2)s1 | 220 to 228 °C
50 | N#Cc1cc(Cc2ccncc2)cc(-c2cccc([N+](=O)[O-])c2)c1O | 225 °C
51 | COc1nc(SCc2ccccc2)ncc1Br | 48 to 49 °C
52 | O=C1NC(O)c2cccn2-c2ccsc21 (stereo not given) | 172 °C
53 | CC(C)(C)C(Cl)=NNc1cc(Cl)c(Cl)cc1[N+](=O)[O-] | 99 to 100 °C
54 | CCOC(=O)CN(CC(=O)OCC)C(=O)C(=O)c1ccc(OCCCCCCCCCCCCOc2ccccc2)cc1 | 55 to 56 °C
55 | CC(=O)Nc1nc(NC(C)=O)c2[nH]cnc2n1 | 293 to 295 °C
56 | O=c1[nH]c2ccccc2n1CCCN1CCC(c2noc3cc(F)ccc23)CC1 | 175 to 177 °C
57 | CCCn1c(=O)n(C)c(=O)c2[nH]c(-c3cc(S(=O)(=O)NCCNC)ccc3OCC)c(Cl)c21 | 226 °C
58 | O=c1[nH]c2ncc(-c3ccc(-c4ncc[nH]4)cc3)nc2n1CCC1CCOCC1 | 293 to 295 °C
59 | COc1ccc(CNc2nc(N3CCC[C@H]3CO)ncc2C(=O)O)cc1Cl | 205 to 208 °C
60 | COc1cc(OC)c2c(C)c(CCN3CCN(c4ccccc4O)CC3)c(=O)oc2c1 | 164 to 165 °C
61 | O=C(Cc1ccccc1N1CCCC1)N1C[C@@H]2[C@H](F)CCC(c3ccccc3)(c3ccccc3)[C@@H]2C1 | 170 °C
62 | O=C1c2cccc([N+](=O)[O-])c2C(=O)N1CCO | 93 °C
63 | O=S(=O)(CCCCl)c1ccc(Cl)cc1 | 69 to 72 °C

The remaining lines, values ahead:

Row | melting point | SMILES
64 | 104 to 106 °C | COc1cc(C(=CC#N)c2ccc(OC)c(OC)c2)ccc1N
65 | 86 to 88 °C | CC(C)(C)OC(=O)c1cc(N=Nc2ccccc2CCC(=O)O)ccc1O
66 | 158 to 161 °C | CS(=O)(=O)c1ccc(-c2[nH]c(S)nc2-c2ccc(F)cc2)cc1
67 | 192 to 193 °C | COc1nc(C(C)(C)O)cnc1NS(=O)(=O)c1cccc(Cl)c1Cl
68 | 145 to 146 °C | COc1cc2ccnc(C=Cc3c(Cl)cccc3Cl)c2cc1OC
69 | 150 to 152 °C | CCN1CCCC1CNC(=O)c1ccc(Nc2ncnc3cc(C(F)(F)F)ccc23)cc1 (stereo not given)
70 | 165 to 168 °C | COc1cccc(C(=O)Nc2ccccc2C(c2ccc(O)cc2)c2ccc(O)cc2)c1
71 | 87 to 88 °C | COC(=O)CCCCCSc1ccc(-c2ccc(Cl)cc2)cc1
72 | 170 to 171 °C | Cc1noc(NC(=O)N2CCC(c3nc(-c4ccc(F)cc4)cs3)CC2)c1C
73 | 141 to 144 °C | COC(=O)c1ccc(OCC2CC(=O)N(c3ccc(O)cc3)C2)cc1 (stereo not given)
74 | 75 to 79 °C | CCn1c2ccc(I)cc2c2cc(I)ccc21
75 | 53 to 55 °C | COc1ccc(CSC2CC(=O)N2CC(=O)NCCCCCCc2ccc(F)cc2)cc1 (stereo not given)
76 | 208 to 210 °C | COc1ccc(NC(=N)c2ccccc2)cc1NC(=O)/C=C/c1ccccc1C(F)(F)F
77 | 182 to 183 °C | COc1ccc(-c2cc(C(N)=O)c(=O)n(CC3CC3)n2)cc1
78 | 108 to 111 °C | CC(CCN1CCCCC1)CC(=O)NNC(=O)N1Cc2ccccc2Oc2ccc(Cl)cc21 (stereo not given)
79 | 282 to 284 °C | Nc1c([N+](=O)[O-])sc2ccc(Br)cc12
80 | 167 to 168 °C | COC(=O)CC(O)/C=C/c1c(-c2ccc(F)cc2)n(C(C)C)c(=O)c2ccccc12 (stereo not given)
81 | 148 °C | Cc1cc(C)nc(OC(C(=O)O)c2ccccc2)n1 (stereo not given)
82 | 120 to 127 °C | Cc1ccc(C(=O)Oc2cc(O)ccn2)cc1

Row | melting point | SMILES
83 | 255 °C | CCOC(=O)C1=C(N)NC2=C(C(=O)CCC2)C1c1cccc(Br)c1 (stereo not given)
84 | 75 to 80 °C | Cc1cc(Oc2ccc(Cl)c(C(F)(F)F)c2)ncc1[N+](=O)[O-]
85 | 210 to 211 °C | CN(C(=O)c1cnc(N2CC(C)(C)NC2=O)nc1N)c1cccc(C(F)(F)F)c1
86 | 165 to 166 °C | COc1ccc(C(=O)C2CCC(C)(C(=O)O)C2(C)C)cc1 (stereo not given)
87 | 120 to 122 °C | O=C(O)c1nc(N2CCCC2)ccc1OCc1ccccc1
88 | 221 to 222 °C | NC(=O)NN=Cc1ccc(Oc2ccc([N+](=O)[O-])cc2)cc1
89 | 152 to 154 °C | Oc1ccc(-c2cc3cc(F)cc(F)c3o2)cc1
90 | 76 to 86 °C | Cc1noc(NS(=O)(=O)c2ccsc2C(=O)Nc2ccc(C(C)(C)C)cc2)c1Br
91 | 126 to 127 °C | C=C(c1ccc(Br)cc1)c1ccc(N(C)C)cc1
92 | 62 to 64 °C | COC(=O)C(C)Oc1ccc(Oc2ccc(Br)cc2F)cc1 (stereo not given)
93 | 146 to 147 °C | Cc1cc(C)cc(S(=O)c2cccc(F)c2C#N)c1 (stereo not given)
94 | 148 to 151 °C | Cc1cc(F)ccc1-c1nc(N[C@H]2CC[C@H](O)CC2)nc2c1ccc(=O)n2-c1ccccc1F
95 | 179 to 182 °C | COc1ccc(C(=O)Nc2ccc(Cl)c(Cl)c2)cc1N
96 | 133 to 135 °C | Cc1c(NC(=O)c2ccc(-c3ccccc3F)cc2)ccc2cc(CN3CCCC3)cnc12
97 | 108 to 111 °C | COc1cc(F)c(C2CNCc3ccsc32)cc1OC (stereo not given)
98 | 64 to 66 °C | CCN(C(C)C)C(C)CC1=C(c2ccc(OC)cc2)CCCNC1=O (stereo not given)
99 | 243 to 244 °C | CCOC(=O)CCCOc1ccc2c(c1)CN1CC(=O)NC1=N2
100 | 102 to 104 °C | COC(=O)Cn1c(CCc2ccccc2)ccc(NC(=O)OCc2ccccc2)c1=O
